Experimental data published in ChEMBL document CHEMBL4765485, “Convenient Retinoid X Receptor Binding Assay Based on Fluorescence Change of the Antagonist NEt-C343” (J Med Chem, 2021).
The source made the active and inactive calls. No cut-off for these calls is given here.

Columns and labels:
[1] = biological target: T1, Retinoic acid receptor RXR-alpha (Homo sapiens) (UniProt P19793); assay: Displacement of 6-(Ethyl-{5-isobutoxy-4-isopropyl-2-[(10-oxo-2,3,5,6-tetrahydro-1H,4H,10H-11-oxa-3a-aza-benzo[de]anthracene-9-carbonyl)-amino]-phenyl}-amino)-nicotinic acid from human RXRalpha-LBD by fluorescence binding assay
T1 sequence (whole entry): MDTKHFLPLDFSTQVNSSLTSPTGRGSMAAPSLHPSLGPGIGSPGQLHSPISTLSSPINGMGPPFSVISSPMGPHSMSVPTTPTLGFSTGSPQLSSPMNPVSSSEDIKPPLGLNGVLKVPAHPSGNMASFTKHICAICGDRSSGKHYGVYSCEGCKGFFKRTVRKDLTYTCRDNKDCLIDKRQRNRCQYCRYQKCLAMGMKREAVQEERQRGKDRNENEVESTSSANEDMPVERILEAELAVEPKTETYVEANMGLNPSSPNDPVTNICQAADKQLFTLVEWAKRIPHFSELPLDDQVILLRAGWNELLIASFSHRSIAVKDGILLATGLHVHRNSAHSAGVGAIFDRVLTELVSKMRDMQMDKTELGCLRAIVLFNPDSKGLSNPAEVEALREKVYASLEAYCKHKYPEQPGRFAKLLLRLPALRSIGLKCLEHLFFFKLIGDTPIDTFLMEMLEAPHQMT

[2] = biological target: T2, Retinoic acid receptor RXR-alpha (Homo sapiens, UniProt P19793); assay: Displacement of [3H]9cis-RA from human RXRalpha-LBD by competitive binding assay
T2 sequence (P19793 whole entry): T1 sequence (whole entry)

[3] = biological target: T2, Retinoic acid receptor RXR-alpha; assay: Antagonist activity at human RXRalpha expressed in COS-7 cells assessed as suppression of NEt-TMN-induced receptor transactivation by luciferase reporter gene assay; format: cell-based; settings: read-out: pA2 (converted)

| SMILES | Activity [1] | Ki [2] | Kb [3] |
| --- | --- | --- | --- |
| C=CCc1ccc(O)c(-c2ccc(O)c(CC=C)c2)c1 | Active | – | – |
| CCN(c1ccc(C(=O)O)cn1)c1cc(OCC(C)C)c(C(C)C)cc1NC(=O)c1ccccc1 | – | 425 nM | 47.9 nM |
| CCCCC/C=C\C/C=C\C/C=C\C/C=C\CCCC(=O)O | Active | – | – |
| CC/C=C\C/C=C\C/C=C\C/C=C\C/C=C\CCCC(=O)O | Active | – | – |
| CC/C=C\C/C=C\C/C=C\C/C=C\C/C=C\C/C=C\CCC(=O)O | Active | – | – |
